Source: patent US9732094B2, “Arylquinazolines” (Merck Patent GmbH, priority 2013, dated 2017)
Read-outs that look alike come from different tables or passages of the source.

What was measured:
[1] = molecular target: DNA-PK (Homo sapiens (Human), UniProt P78527); experiment: DNA-PK assay (biochemical), flashplate 33P-ATP kinase assay
In short: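 Reactions ran in streptavidin-coated flashplates and were halted by 200 mM EDTA, with a further 30 min at room temperature before saline washing.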

[2] = molecular target: DNA-PK phosphorylation at serine 2056 (Homo sapiens (Human), UniProt P78527); experiment: DNA-PK phosphorylation at serine 2056 (cellular), bleomycin-treated HCT116 cells, ELISA; assay type: cell-based; settings: read-out: IC50 pDNA-PK
In short: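 HCT116, MEM alpha + 10% FCS, 37 °C/10% CO2, seeded o/n. Cpd + 10 μM bleomycin, 6 h. ELISA, chemiluminescence; phospho/total DNA-PKcs ratio, DMSO = blank.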

[3] = molecular target: Kv11.1 (hERG) (Homo sapiens (Human), UniProt Q12809); experiment: Kv11.1 (hERG) ion channel activity (patch clamp assay), HEK293 cells transfected with hERG gene
[4] = cellular, HCT116 cells, 10 μM bleomycin, six hours
[5] = read-out: Ki [Kv1.11 hERG], patch clamp, HEK293 transfected with hERG gene
[6] = cellular DNA-PK phosphorylation at serine 2056, HCT116
[7] = read-out: Ki [Kv1.11 hERG], hERG patch clamp assay (cells without asterisk)
[8] = Ki [Kv1.11 hERG], hERG patch clamp assay (cells without asterisk)
[9] = Ki [Kv1.11 hERG], patch clamp, HEK293 transfected with hERG gene
[10] = read-out: Ki [Kv1.11 hERG], Table 5

Kv11.1 (hERG), sequence (Q12809 whole entry): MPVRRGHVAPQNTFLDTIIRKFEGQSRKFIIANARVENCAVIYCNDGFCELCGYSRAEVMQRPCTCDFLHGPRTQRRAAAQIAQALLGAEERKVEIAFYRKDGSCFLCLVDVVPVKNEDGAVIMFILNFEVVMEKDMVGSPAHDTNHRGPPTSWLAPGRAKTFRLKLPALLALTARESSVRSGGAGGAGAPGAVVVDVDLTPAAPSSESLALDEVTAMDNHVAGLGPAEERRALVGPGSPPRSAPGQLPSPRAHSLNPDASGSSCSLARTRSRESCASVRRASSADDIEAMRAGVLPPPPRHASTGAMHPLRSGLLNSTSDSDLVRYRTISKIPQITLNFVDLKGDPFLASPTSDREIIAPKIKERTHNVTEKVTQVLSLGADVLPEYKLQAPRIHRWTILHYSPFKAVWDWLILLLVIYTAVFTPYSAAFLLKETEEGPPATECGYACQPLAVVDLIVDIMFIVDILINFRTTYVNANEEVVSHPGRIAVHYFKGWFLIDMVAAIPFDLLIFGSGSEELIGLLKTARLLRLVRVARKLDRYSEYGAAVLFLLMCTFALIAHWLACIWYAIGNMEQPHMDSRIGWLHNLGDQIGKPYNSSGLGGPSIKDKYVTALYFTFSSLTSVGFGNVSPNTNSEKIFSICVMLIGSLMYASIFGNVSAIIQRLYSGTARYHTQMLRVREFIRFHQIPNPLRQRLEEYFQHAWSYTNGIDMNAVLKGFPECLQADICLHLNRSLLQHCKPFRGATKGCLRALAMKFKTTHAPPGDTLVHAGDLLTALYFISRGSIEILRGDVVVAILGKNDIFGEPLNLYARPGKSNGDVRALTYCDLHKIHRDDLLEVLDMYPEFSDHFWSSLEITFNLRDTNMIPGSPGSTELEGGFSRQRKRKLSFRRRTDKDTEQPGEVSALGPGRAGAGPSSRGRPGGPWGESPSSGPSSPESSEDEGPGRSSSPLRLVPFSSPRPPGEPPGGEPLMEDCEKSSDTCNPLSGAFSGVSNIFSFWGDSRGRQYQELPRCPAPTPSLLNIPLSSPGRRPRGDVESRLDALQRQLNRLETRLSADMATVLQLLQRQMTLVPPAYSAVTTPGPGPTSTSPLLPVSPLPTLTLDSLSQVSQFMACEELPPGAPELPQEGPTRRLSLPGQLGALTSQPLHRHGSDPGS

IC50 ([1]; enzymatic, 5 μM ATP) [µM]	IC50 [2, 4] [µM]	IC50 ([1]; biochemical DNA-PK assay) [µM]	IC50 [2, 6] [µM]	Compound	Ki [3, 7] [µM]	also measured
–	–	0.007 to 0.03	10 to 30	COC(c1ccc(F)c(-c2ncnc3cc(N4CCOCC4)ccc23)c1)c1nccnc1C (stereo not drawn) [Example 353, 4-{2-Fluoro-5-[methoxy-(3-methyl-pyrazin-2-yl)methyl]-phenyl}-7-morpholin-4-ylquinazoline]	> 25	–
–	–	0.003 to 0.007	0.5 to 5	Cc1cncnc1C(O)c1cc(-c2ncnc3cc(N4CCOCC4)ccc23)ccc1F (stereo not drawn) [Example 392, [2-Fluoro-5-(7-morpholin-4-yl-quinazolin-4-yl)-phenyl]-(5-methyl-pyrimidin-4-yl)-methanol]	–	Ki [3, 8]: 15 to 25 µM
0.007 to 0.03	10 to 30	–	–	OC(c1ccc(F)c(-c2ncnc3cc(N4CCOCC4)ccc23)c1)c1cnccn1 (stereo not drawn) [Example 33, [4-Fluoro-3-(7-morpholin-4-yl-quinazolin-4-yl)phenyl]-pyrazin-2-ylmethanol]	–	Ki [3, 5]: < 10 µM
–	–	0.007 to 0.03	5 to 10	OC(c1cc(-c2ncnc3cc(N4CCOCC4)ccc23)ccc1Cl)c1ncncc1F (stereo not drawn) [Example 412, [2-Chloro-5-(7-morpholin-4-yl-quinazolin-4-yl)-phenyl]-(5-fluoro-pyrimidin-4-yl)-methanol]	–	Ki [3, 8]: 15 to 25 µM
0.007 to 0.03	0.5 to 5	–	–	COc1cnc(C(O)c2ccc(F)c(-c3ncnc4cc(N5CCOCC5)ccc34)c2)cn1 (stereo not drawn) [Example 60, [4-Fluoro-3-(7-morpholin-4-yl-quinazolin-4-yl)phenyl]-(5-methoxypyrazin-2-yl)methanol]	–	Ki [3, 9]: 15 to 25 µM
–	–	< 0.003	< 0.5	OC(c1ccc(F)c(-c2ncnc3cc(N4CCOCC4)ccc23)c1)c1nccn2cccc12 (stereo not drawn) [Example 356, [4-Fluoro-3-(7-morpholin-4-yl-quinazolin-4-yl)-phenyl]pyrrolo[1,2-a]-pyrazin-1-ylmethanol]	< 10	–
–	–	0.003 to 0.007	< 0.5	Cc1nccnc1C(O)c1cc(-c2ncnc3cc(N4CCOCC4)ccc23)c(F)cc1Cl (stereo not drawn) [Example 457, [2-Chloro-4-fluoro-5-(7-morpholin-4-yl-quinazolin-4-yl)-phenyl]-(3-methyl-pyrazin-2-yl)-methanol]	> 25	–
–	–	0.007 to 0.03	0.5 to 5	COc1nccnc1C(C(N)=O)c1cc(-c2ncnc3cc(N4CCOCC4)ccc23)c(F)cc1Cl (stereo not drawn) [Example 320, 2-[2-Chloro-4-fluoro-5-(7-morpholin-4-yl-quinazolin-4-yl)-phenyl]-2-(3-methoxy-pyrazin-2-yl)acetamide]	> 25	–
0.007 to 0.03	0.5 to 5	–	–	COc1nnc(C(O)c2cc(-c3ncnc4cc(N5CCOCC5)ccc34)c(F)cc2Cl)c2ccncc12 (stereo not drawn) [Example 40, [2-Chloro-4-fluoro-5-(7-morpholin-4-yl-quinazolin-4-yl)phenyl]-(4-methoxypyrido-[3,4-d}pyridazin-1-yl)-methanol]	–	Ki [3, 9]: 10 to 15 µM
0.003 to 0.007	< 0.5	–	–	CSc1ccc(C(O)c2cc(-c3ncnc4cc(N5CCOCC5)ccc34)c(F)cc2Cl)nn1 (stereo not drawn) [Example 108, [2-Chloro-4-fluoro-5-(7-morpholin-4-yl-quinazolin-4-yl)-phenyl]-(6-methyl-sulfanylpyridazin-3-yl)methanol]	–	Ki [3, 9]: 15 to 25 µM
0.003 to 0.007	< 0.5	–	–	OC(c1cccnn1)c1cc(-c2ncnc3cc(N4CCOCC4)ccc23)c(F)cc1Cl (stereo not drawn) [Example 47, [2-Chloro-4-fluoro-5-(7-morpholin-4-yl-quinazolin-4-yl)phenyl]-pyridazin-3-ylmethanol]	–	Ki [3, 5]: > 25 µM
–	–	< 0.003	5 to 10	OC(c1ccc(F)c(-c2ncnc3cc(N4CCOCC4)ccc23)c1)c1nnc2ccccn12 (stereo not drawn) [Example 344, [4-Fluoro-3-(7-morpholin-4-yl-quinazolin-4-yl)-phenyl]-[1,2,4]-triazolo[4,3-a]pyridin-3-ylmethanol]	> 25	–
–	–	0.003 to 0.007	< 0.5	OC(c1cc(-c2ncnc3cc(N4CCOCC4)ccc23)c(F)cc1Cl)c1nccn2ccnc12 (single isomer, unassigned) [Example 396]	> 25	–

Further lines, the compound ahead of its results:

Compound	IC50 ([1]; enzymatic, 5 μM ATP) [µM]	IC50 [2, 4] [µM]	IC50 ([1]; biochemical DNA-PK assay) [µM]	IC50 [2, 6] [µM]	Ki [3, 7] [µM]	also measured
COc1ccc(C(O)c2cc(-c3ncnc4cc(N5CCOCC5)ccc34)c(F)cc2F)c(F)c1 (stereo not drawn) [Example 124, [2,4-Difluoro-5-(7-morpholin-4-yl-quinazolin-4-yl)-phenyl]-(2-fluoro-4-methoxy-phenyl)methanol]	0.007 to 0.03	0.5 to 5	–	–	–	Ki [3, 5]: < 10 µM
COc1nccnc1C(C(N)=O)c1ccc(F)c(-c2ncnc3cc(N4CCOCC4)ccc23)c1 (stereo not drawn) [Example 305, 2-[4-Fluoro-3-(7-morpholin-4-yl-quinazolin-4-yl)-phenyl]-2-(3-methoxy-pyrazin-2-yl)acetamide]	–	–	0.007 to 0.03	5 to 10	> 25	–
OC(c1ccc(F)c(-c2ncnc3cc(N4CCOCC4)ccc23)c1)c1ncnc2ccsc12 (stereo not drawn) [Example 438, [4-Fluoro-3-(7-morpholin-4-yl-quinazolin-4-yl)-phenyl]thieno[3,2-d}-pyrimidin-4-yl-methanol]	–	–	< 0.003	< 0.5	–	Ki [3, 8]: 10 to 15 µM
OC(c1ccc(F)c(-c2ncnc3cc(N4CCOCC4)ccc23)c1)c1c(Cl)cncc1Cl (stereo not drawn) [Example 17, (3,5-Dichloro-pyridin-4-yl)-[4-Fluoro-3-(7-morpholin-4-yl-quinazolin-4-yl)phenyl]-methanol]	0.003 to 0.007	0.5 to 5	–	–	–	Ki [3, 9]: 10 to 15 µM
COc1nccnc1C(O)c1cc(-c2ncnc3cc(N4CCOCC4)ccc23)c(F)cc1F (stereo not drawn) [Example 454, [2,4-Difluoro-5-(7-morpholin-4-yl-quinazolin-4-yl)-phenyl]-(3-methoxy-pyrazin-2-yl)-methanol]	–	–	< 0.003	< 0.5	> 25	–
Cn1cnc2c(C(O)c3ccc(F)c(-c4ncnc5cc(N6CCOCC6)ccc45)c3)ncnc21 (stereo not drawn) [Example 420, [4-Fluoro-3-(7-morpholin-4-yl-quinazolin-4-yl)-phenyl]-(9-methyl-9H-purin-6-yl)-methanol]	–	–	0.007 to 0.03	5 to 10	> 25	–
CC(O)c1csc(C(O)c2cc(-c3ncnc4cc(N5CCOCC5)ccc34)c(F)cc2Cl)n1 (stereo not drawn) [Example 201, 1-(2-{[2-Chloro-4-fluoro-5-(7-morpholin-4-yl-quinazolin-4-yl)-phenyl]hydroxy-methyl}thiazol-4-yl)-ethanol]	–	–	–	–	–	IC50 ([1]; Table 5): 0.003 to 0.007 µM; IC50 ([2]; Table 5, HCT116 cells): 0.5 to 5 µM; Ki ([3]; Ki [Kv1.11 hERG], Table 5): 15 to 25 µM
OC(c1cccc(-c2ncnc3cc(N4CCOCC4)ccc23)c1)c1nccs1 (stereo not drawn) [Example 150, [3-(7-Morpholin-4-ylquinazolin-4-yl)-phenyl]thiazol-2-yl-methanol]	–	–	–	–	–	IC50 ([1]; Table 5): 0.007 to 0.03 µM; IC50 ([2]; Table 5, HCT116 cells): 5 to 10 µM; Ki [3, 10]: > 25 µM
OC(c1ccc(F)c(-c2ncnc3cc(N4CCOCC4)ccc23)c1)c1cncc(F)c1Cl (stereo not drawn) [Example 2, (4-Chloro-5-fluoropyridin-3-yl)-[4-fluoro-3-(7-morpholin-4-ylquinazolin-4-yl)phenyl]methanol]	0.003 to 0.007	< 0.5	–	–	–	Ki [3, 9]: 10 to 15 µM
COc1nccnc1C(C(N)=O)c1cc(-c2ncnc3cc(N4CCOCC4)cc(F)c23)c(F)cc1Cl (stereo not drawn) [Example 261, 2-[2-Chloro-4-fluoro-5-(5-fluoro-7-morpholin-4-yl-quinazolin-4-yl)-phenyl]-2-(3-methoxy-pyrazin-2-yl)acetamide]	–	–	0.007 to 0.03	0.5 to 5	–	Ki [3, 8]: 15 to 25 µM
OC(c1cnc(F)c(-c2ncnc3cc(N4CCOCC4)ccc23)c1)c1nccs1 (stereo not drawn) [Example 188, [6-Fluoro-5-(7-morpholin-4-yl-quinazolin-4-yl)-pyridin-3-yl]thiazol-2-ylmethanol]	–	–	–	–	–	IC50 ([1]; Table 5): < 0.003 µM; IC50 ([2]; Table 5, HCT116 cells): 5 to 10 µM; Ki [3, 10]: > 25 µM
OCc1csc([C@H](O)c2cc(-c3ncnc4cc(N5CCOCC5)ccc34)c(F)cc2Cl)n1 [Example 186, (R)-[2-Chloro-4-fluoro-5-(7-morpholin-4-yl-quinazolin-4-yl)-phenyl]-(4-hydroxymethyl-thiazol-2-yl)-methanol]	–	–	–	–	–	IC50 ([1]; Table 5): 0.007 to 0.03 µM; IC50 ([2]; Table 5, HCT116 cells): 5 to 10 µM; Ki [3, 10]: < 10 µM
OC(c1ccc(F)c(-c2ncnc3cc(N4CCOCC4)ccc23)c1)c1ncccc1C(F)(F)F (stereo not drawn) [Example 80, [4-Fluoro-3-(7-morpholin-4-yl-quinazolin-4-yl)-phenyl]-(3-trifluoro-methylpyridin-2-yl)-methanol]	0.003 to 0.007	0.5 to 5	–	–	–	Ki [3, 5]: > 25 µM
Cc1cncnc1C(O)c1cc(-c2ncnc3cc(N4CCOCC4)ccc23)ccc1Cl (stereo not drawn) [Example 419, [2-Chloro-5-(7-morpholin-4-yl-quinazolin-4-yl)-phenyl]-(5-methyl-pyrimidin-4-yl)-methanol]	–	–	0.007 to 0.03	0.5 to 5	15 to 25	–
OC(c1ccc(OCC(F)(F)F)nn1)c1cc(-c2ncnc3cc(N4CCOCC4)ccc23)c(F)cc1Cl (stereo not drawn) [Example 115, [2-Chloro-4-fluoro-5-(7-morpholin-4-yl-quinazolin-4-yl)-phenyl]-[6-(2,2,2-trifluoroethoxy)-pyridazin-3-yl]-methanol]	0.003 to 0.007	0.5 to 5	–	–	–	Ki [3, 9]: 10 to 15 µM
CC(O)(c1ccc(F)c(-c2ncnc3cc(N4CCOCC4)ccc23)c1)c1nccs1 (stereo not drawn) [Example 163, 1-[4-Fluoro-3-(7-morpholin-4-yl-quinazolin-4-yl)-phenyl]-1-thiazol-2-ylethanol]	–	–	–	–	–	IC50 ([1]; Table 5): 0.007 to 0.03 µM; IC50 ([2]; Table 5, HCT116 cells): 10 to 30 µM; Ki ([3]; Ki [Kv1.11 hERG], Table 5): 10 to 15 µM
